Measurements as given in ChEMBL document CHEMBL4390652, “Design, biological evaluation and X-ray crystallography of nanomolar multifunctional ligands targeting simultaneously acetylcholinesterase and glycogen synthase kinase-3” (Eur J Med Chem, 2019).

Target: Cholinesterase (Homo sapiens, UniProt P06276)
Test: Inhibition of human serum BChE using BTCh as substrate preincubated for 20 mins followed by substrate addition and measured for 3 mins by Ellman's method
Settings: not given

Sequence of Cholinesterase (P06276 whole entry): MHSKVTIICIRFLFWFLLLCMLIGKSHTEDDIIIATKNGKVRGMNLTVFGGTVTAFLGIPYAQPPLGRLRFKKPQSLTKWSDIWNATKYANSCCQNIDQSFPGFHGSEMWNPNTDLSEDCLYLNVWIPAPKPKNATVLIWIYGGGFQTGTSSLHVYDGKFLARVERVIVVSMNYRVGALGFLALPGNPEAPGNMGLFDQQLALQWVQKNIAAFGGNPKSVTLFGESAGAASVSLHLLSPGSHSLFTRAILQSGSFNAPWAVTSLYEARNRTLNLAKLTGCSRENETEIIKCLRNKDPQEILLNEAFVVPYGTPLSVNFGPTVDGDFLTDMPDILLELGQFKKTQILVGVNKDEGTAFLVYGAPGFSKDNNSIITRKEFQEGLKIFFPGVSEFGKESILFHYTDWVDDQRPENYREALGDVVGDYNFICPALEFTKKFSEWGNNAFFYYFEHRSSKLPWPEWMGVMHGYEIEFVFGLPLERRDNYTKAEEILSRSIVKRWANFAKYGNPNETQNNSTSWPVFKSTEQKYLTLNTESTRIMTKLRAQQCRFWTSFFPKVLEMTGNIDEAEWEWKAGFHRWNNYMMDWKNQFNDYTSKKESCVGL

Row | SMILES | IC50 [nM]
1 | O=C(Nc1cc(-c2cn(CCNc3c4c(nc5ccccc35)CCCC4)nn2)ccn1)Nc1cccc2c1[C@@H]1CCCCN1C2=O | 254
2 | O=C(Nc1cc(COCc2cn(CCNc3c4c(nc5ccccc35)CCCC4)nn2)ccn1)Nc1cccc2c1C1CCCCN1C2=O (racemic) | 169
3 | O=C(Nc1ccc(-c2cn(CCNc3c4c(nc5ccccc35)CCCC4)nn2)cn1)Nc1cccc2c1C1CCCCN1C2=O (racemic) | 185
4 | O=C(Nc1cc(CCc2cn(CCNc3c4c(nc5ccccc35)CCCC4)nn2)ccn1)Nc1cccc2c1C1CCCCN1C2=O (racemic) | 65.7
5 | CN(Cc1ccnc(NC(=O)Nc2cccc3c2C2CCCCN2C3=O)c1)Cc1cn(CCNc2c3c(nc4ccccc24)CCCC3)nn1 (racemic) | 206

System: Caco-2
Test: Cytotoxicity against human Caco2 cells assessed as growth inhibition incubated for 48 hrs by Hoechst 33342 staining based assay
Assay type: cell-based
Settings: Caco-2, 48 h

Row | SMILES | IC50 [nM]
6 | O=C(Nc1cc(-c2cn(CCNc3c4c(nc5ccccc35)CCCC4)nn2)ccn1)Nc1cccc2c1[C@@H]1CCCCN1C2=O | 10000
7 | O=C(Nc1cc(COCc2cn(CCNc3c4c(nc5ccccc35)CCCC4)nn2)ccn1)Nc1cccc2c1C1CCCCN1C2=O (racemic) | 20000
8 | O=C(Nc1ccc(-c2cn(CCNc3c4c(nc5ccccc35)CCCC4)nn2)cn1)Nc1cccc2c1C1CCCCN1C2=O (racemic) | > 25000
9 | O=C(Nc1cc(CCc2cn(CCNc3c4c(nc5ccccc35)CCCC4)nn2)ccn1)Nc1cccc2c1C1CCCCN1C2=O (racemic) | 4800
10 | CN(Cc1ccnc(NC(=O)Nc2cccc3c2C2CCCCN2C3=O)c1)Cc1cn(CCNc2c3c(nc4ccccc24)CCCC3)nn1 (racemic) | 9000

System: Huh-7
Test: Cytotoxicity against human HuH7 cells assessed as growth inhibition incubated for 48 hrs by Hoechst 33342 staining based assay
Assay type: cell-based
Settings: Huh-7, 48 h

Row | SMILES | IC50 [nM]
11 | O=C(Nc1cc(-c2cn(CCNc3c4c(nc5ccccc35)CCCC4)nn2)ccn1)Nc1cccc2c1[C@@H]1CCCCN1C2=O | 2600
12 | O=C(Nc1cc(COCc2cn(CCNc3c4c(nc5ccccc35)CCCC4)nn2)ccn1)Nc1cccc2c1C1CCCCN1C2=O (racemic) | 4000
13 | O=C(Nc1ccc(-c2cn(CCNc3c4c(nc5ccccc35)CCCC4)nn2)cn1)Nc1cccc2c1C1CCCCN1C2=O (racemic) | > 25000
14 | O=C(Nc1cc(CCc2cn(CCNc3c4c(nc5ccccc35)CCCC4)nn2)ccn1)Nc1cccc2c1C1CCCCN1C2=O (racemic) | 2900
15 | CN(Cc1ccnc(NC(=O)Nc2cccc3c2C2CCCCN2C3=O)c1)Cc1cn(CCNc2c3c(nc4ccccc24)CCCC3)nn1 (racemic) | 2000

System: not listed separately
Test: Cytotoxicity against human SH-SY5Y cells assessed as reduction in cell viability at 100 uM incubated for 24 hrs by MTT assay relative to untreated cells
Assay type: cell-based
Settings: read-out: INH

Row | SMILES | cytotoxicity at 24 h, 100 µM [%]
16 | O=C(Nc1cc(COCc2cn(CCNc3c4c(nc5ccccc35)CCCC4)nn2)ccn1)Nc1cccc2c1C1CCCCN1C2=O (racemic) | 50
17 | CN(Cc1ccnc(NC(=O)Nc2cccc3c2C2CCCCN2C3=O)c1)Cc1cn(CCNc2c3c(nc4ccccc24)CCCC3)nn1 (racemic) | 50

System: HaCaT
Test: Cytotoxicity against human HaCaT cells assessed as growth inhibition incubated for 48 hrs by Hoechst 33342 staining based assay
Assay type: cell-based
Settings: not given

Row | SMILES | IC50 [nM]
18 | O=C(Nc1cc(COCc2cn(CCNc3c4c(nc5ccccc35)CCCC4)nn2)ccn1)Nc1cccc2c1C1CCCCN1C2=O (racemic) | 4000
19 | O=C(Nc1cc(CCc2cn(CCNc3c4c(nc5ccccc35)CCCC4)nn2)ccn1)Nc1cccc2c1C1CCCCN1C2=O (racemic) | 1900
20 | CN(Cc1ccnc(NC(=O)Nc2cccc3c2C2CCCCN2C3=O)c1)Cc1cn(CCNc2c3c(nc4ccccc24)CCCC3)nn1 (racemic) | 2000

System: MDA-MB-231
Test: Cytotoxicity against human MDA-MB-231 cells assessed as growth inhibition incubated for 48 hrs by Hoechst 33342 staining based assay
Assay type: cell-based
Settings: MDA-MB-231, 48 h

Row | SMILES | IC50 [nM]
21 | O=C(Nc1cc(-c2cn(CCNc3c4c(nc5ccccc35)CCCC4)nn2)ccn1)Nc1cccc2c1[C@@H]1CCCCN1C2=O | 4000
22 | O=C(Nc1cc(COCc2cn(CCNc3c4c(nc5ccccc35)CCCC4)nn2)ccn1)Nc1cccc2c1C1CCCCN1C2=O (racemic) | 4000
23 | O=C(Nc1ccc(-c2cn(CCNc3c4c(nc5ccccc35)CCCC4)nn2)cn1)Nc1cccc2c1C1CCCCN1C2=O (racemic) | > 25000
24 | O=C(Nc1cc(CCc2cn(CCNc3c4c(nc5ccccc35)CCCC4)nn2)ccn1)Nc1cccc2c1C1CCCCN1C2=O (racemic) | 2000
25 | CN(Cc1ccnc(NC(=O)Nc2cccc3c2C2CCCCN2C3=O)c1)Cc1cn(CCNc2c3c(nc4ccccc24)CCCC3)nn1 (racemic) | 2000

System: PC-3
Test: Cytotoxicity against human PC3 cells assessed as growth inhibition incubated for 48 hrs by Hoechst 33342 staining based assay
Assay type: cell-based
Settings: PC-3, 48 h

Row | SMILES | IC50 [nM]
26 | O=C(Nc1cc(-c2cn(CCNc3c4c(nc5ccccc35)CCCC4)nn2)ccn1)Nc1cccc2c1[C@@H]1CCCCN1C2=O | 6000
27 | O=C(Nc1cc(COCc2cn(CCNc3c4c(nc5ccccc35)CCCC4)nn2)ccn1)Nc1cccc2c1C1CCCCN1C2=O (racemic) | 7000
28 | O=C(Nc1ccc(-c2cn(CCNc3c4c(nc5ccccc35)CCCC4)nn2)cn1)Nc1cccc2c1C1CCCCN1C2=O (racemic) | > 25000
29 | O=C(Nc1cc(CCc2cn(CCNc3c4c(nc5ccccc35)CCCC4)nn2)ccn1)Nc1cccc2c1C1CCCCN1C2=O (racemic) | 1600
30 | CN(Cc1ccnc(NC(=O)Nc2cccc3c2C2CCCCN2C3=O)c1)Cc1cn(CCNc2c3c(nc4ccccc24)CCCC3)nn1 (racemic) | 3000

Target: Cyclin-dependent kinase 5/CDK5 activator 1 (Homo sapiens, UniProt Q00535)
Test: not given
Assay type: protein-complex assay
Settings: not given

Sequence of Cyclin-dependent kinase 5/CDK5 activator 1 (Q00535 whole entry): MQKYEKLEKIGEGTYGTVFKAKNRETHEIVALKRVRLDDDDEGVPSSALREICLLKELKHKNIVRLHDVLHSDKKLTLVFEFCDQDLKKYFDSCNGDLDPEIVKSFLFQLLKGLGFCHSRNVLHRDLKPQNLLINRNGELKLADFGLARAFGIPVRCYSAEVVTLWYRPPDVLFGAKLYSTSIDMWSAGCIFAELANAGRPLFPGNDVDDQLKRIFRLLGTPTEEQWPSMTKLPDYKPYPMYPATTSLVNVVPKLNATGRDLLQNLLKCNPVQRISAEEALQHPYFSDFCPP
Sequence of Cyclin-dependent kinase 5/CDK5 activator 1 (Q15078 whole entry, further chain): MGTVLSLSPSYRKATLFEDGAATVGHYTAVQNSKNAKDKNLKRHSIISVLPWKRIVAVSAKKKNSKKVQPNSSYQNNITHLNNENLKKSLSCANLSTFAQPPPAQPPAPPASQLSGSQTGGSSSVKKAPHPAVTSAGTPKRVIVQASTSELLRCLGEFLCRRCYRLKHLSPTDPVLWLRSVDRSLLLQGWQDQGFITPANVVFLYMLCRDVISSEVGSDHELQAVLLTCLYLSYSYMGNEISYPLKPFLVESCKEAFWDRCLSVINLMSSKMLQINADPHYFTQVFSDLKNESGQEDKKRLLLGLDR

Row | SMILES | IC50 [nM]
31 | O=C(Nc1cc(-c2cn(CCNc3c4c(nc5ccccc35)CCCC4)nn2)ccn1)Nc1cccc2c1[C@@H]1CCCCN1C2=O | 1100
32 | O=C(Nc1cc(COCc2cn(CCNc3c4c(nc5ccccc35)CCCC4)nn2)ccn1)Nc1cccc2c1C1CCCCN1C2=O (racemic) | 300
33 | O=C(Nc1ccc(-c2cn(CCNc3c4c(nc5ccccc35)CCCC4)nn2)cn1)Nc1cccc2c1C1CCCCN1C2=O (racemic) | > 10000
34 | O=C(Nc1cc(CCc2cn(CCNc3c4c(nc5ccccc35)CCCC4)nn2)ccn1)Nc1cccc2c1C1CCCCN1C2=O (racemic) | 800
35 | CN(Cc1ccnc(NC(=O)Nc2cccc3c2C2CCCCN2C3=O)c1)Cc1cn(CCNc2c3c(nc4ccccc24)CCCC3)nn1 (racemic) | 310

System: HCT-116
Test: Cytotoxicity against human HCT116 cells assessed as growth inhibition incubated for 48 hrs by Hoechst 33342 staining based assay
Assay type: cell-based
Settings: HCT-116, 48 h

Row | SMILES | IC50 [nM]
36 | O=C(Nc1cc(-c2cn(CCNc3c4c(nc5ccccc35)CCCC4)nn2)ccn1)Nc1cccc2c1[C@@H]1CCCCN1C2=O | 2700
37 | O=C(Nc1cc(COCc2cn(CCNc3c4c(nc5ccccc35)CCCC4)nn2)ccn1)Nc1cccc2c1C1CCCCN1C2=O (racemic) | 4000
38 | O=C(Nc1ccc(-c2cn(CCNc3c4c(nc5ccccc35)CCCC4)nn2)cn1)Nc1cccc2c1C1CCCCN1C2=O (racemic) | > 25000
39 | O=C(Nc1cc(CCc2cn(CCNc3c4c(nc5ccccc35)CCCC4)nn2)ccn1)Nc1cccc2c1C1CCCCN1C2=O (racemic) | 1100
40 | CN(Cc1ccnc(NC(=O)Nc2cccc3c2C2CCCCN2C3=O)c1)Cc1cn(CCNc2c3c(nc4ccccc24)CCCC3)nn1 (racemic) | 2000

System: NCI-H727
Test: Cytotoxicity against human NCI-H727 cells assessed as growth inhibition incubated for 48 hrs by Hoechst 33342 staining based assay
Assay type: cell-based
Settings: NCI-H727, 48 h

Row | SMILES | IC50 [nM]
41 | O=C(Nc1cc(-c2cn(CCNc3c4c(nc5ccccc35)CCCC4)nn2)ccn1)Nc1cccc2c1[C@@H]1CCCCN1C2=O | 7000
42 | O=C(Nc1cc(COCc2cn(CCNc3c4c(nc5ccccc35)CCCC4)nn2)ccn1)Nc1cccc2c1C1CCCCN1C2=O (racemic) | 9000
43 | O=C(Nc1ccc(-c2cn(CCNc3c4c(nc5ccccc35)CCCC4)nn2)cn1)Nc1cccc2c1C1CCCCN1C2=O (racemic) | > 25000
44 | O=C(Nc1cc(CCc2cn(CCNc3c4c(nc5ccccc35)CCCC4)nn2)ccn1)Nc1cccc2c1C1CCCCN1C2=O (racemic) | 6300
45 | CN(Cc1ccnc(NC(=O)Nc2cccc3c2C2CCCCN2C3=O)c1)Cc1cn(CCNc2c3c(nc4ccccc24)CCCC3)nn1 (racemic) | 4000

System: SH-SY5Y
Test: Cytotoxicity against human SH-SY5Y cells assessed as reduction in cell viability incubated for 72 hrs by MTT assay
Assay type: cell-based
Settings: not given

Row | SMILES | IC50 [nM]
46 | O=C(Nc1cc(COCc2cn(CCNc3c4c(nc5ccccc35)CCCC4)nn2)ccn1)Nc1cccc2c1C1CCCCN1C2=O (racemic) | 22000
47 | CN(Cc1ccnc(NC(=O)Nc2cccc3c2C2CCCCN2C3=O)c1)Cc1cn(CCNc2c3c(nc4ccccc24)CCCC3)nn1 (racemic) | 25000

Target: Glycogen synthase kinase-3 (Sus scrofa, UniProt B2LUN4+I6LNT8)
Test: not given
Settings: not given

Row | SMILES | IC50 [nM]
48 | O=C(Nc1cc(-c2cn(CCNc3c4c(nc5ccccc35)CCCC4)nn2)ccn1)Nc1cccc2c1[C@@H]1CCCCN1C2=O | 19
49 | O=C(Nc1cc(COCc2cn(CCNc3c4c(nc5ccccc35)CCCC4)nn2)ccn1)Nc1cccc2c1C1CCCCN1C2=O (racemic) | 10
50 | O=C(Nc1ccc(-c2cn(CCNc3c4c(nc5ccccc35)CCCC4)nn2)cn1)Nc1cccc2c1C1CCCCN1C2=O (racemic) | > 10000
51 | O=C(Nc1cc(CCc2cn(CCNc3c4c(nc5ccccc35)CCCC4)nn2)ccn1)Nc1cccc2c1C1CCCCN1C2=O (racemic) | 21
52 | CN(Cc1ccnc(NC(=O)Nc2cccc3c2C2CCCCN2C3=O)c1)Cc1cn(CCNc2c3c(nc4ccccc24)CCCC3)nn1 (racemic) | 10

System: MDR1
Test: in vitro
Settings: dog, MDCK-MDR1
Description: Apparent permeability across basolateral to apical side in MDCK2-MDR1 cells by HPLC analysis

Row | SMILES | Papp B→A [×10⁻⁶ cm/s]
53 | O=C(Nc1cc(COCc2cn(CCNc3c4c(nc5ccccc35)CCCC4)nn2)ccn1)Nc1cccc2c1C1CCCCN1C2=O (racemic) | 20.8
54 | CN(Cc1ccnc(NC(=O)Nc2cccc3c2C2CCCCN2C3=O)c1)Cc1cn(CCNc2c3c(nc4ccccc24)CCCC3)nn1 (racemic) | 8.4

System: MDR1
Test: in vitro
Settings: dog, MDCK-MDR1
Remark: another data set of the same source
Description: Efflux ratio of apparent permeability from basolateral to apical over apical to basolateral side in MDCK2-MDR1 cells by HPLC analysis

Row | SMILES | efflux ratio
55 | O=C(Nc1cc(COCc2cn(CCNc3c4c(nc5ccccc35)CCCC4)nn2)ccn1)Nc1cccc2c1C1CCCCN1C2=O (racemic) | 1.54
56 | CN(Cc1ccnc(NC(=O)Nc2cccc3c2C2CCCCN2C3=O)c1)Cc1cn(CCNc2c3c(nc4ccccc24)CCCC3)nn1 (racemic) | 0.83

System: MDCK-MDR1
Test: Cytotoxicity against MDCK2-MDR1 cells assessed as reduction in cell viability at 75 uM incubated for 2 hrs by MTT assay
Assay type: ADME, cell-based, Canis lupus familiaris
Settings: dog, mdck-mdr1, 2 h

Row | SMILES | Activity
57 | O=C(Nc1cc(COCc2cn(CCNc3c4c(nc5ccccc35)CCCC4)nn2)ccn1)Nc1cccc2c1C1CCCCN1C2=O (racemic) | Non-Toxic
58 | CN(Cc1ccnc(NC(=O)Nc2cccc3c2C2CCCCN2C3=O)c1)Cc1cn(CCNc2c3c(nc4ccccc24)CCCC3)nn1 (racemic) | Non-Toxic

Target: Acetylcholinesterase (Homo sapiens, UniProt P22303)
Test: Inhibition of human recombinant AChE using ATCh as substrate preincubated for 20 mins followed by substrate addition and measured for 3 mins by Ellman method
Settings: not given

Sequence of Acetylcholinesterase (P22303 whole entry): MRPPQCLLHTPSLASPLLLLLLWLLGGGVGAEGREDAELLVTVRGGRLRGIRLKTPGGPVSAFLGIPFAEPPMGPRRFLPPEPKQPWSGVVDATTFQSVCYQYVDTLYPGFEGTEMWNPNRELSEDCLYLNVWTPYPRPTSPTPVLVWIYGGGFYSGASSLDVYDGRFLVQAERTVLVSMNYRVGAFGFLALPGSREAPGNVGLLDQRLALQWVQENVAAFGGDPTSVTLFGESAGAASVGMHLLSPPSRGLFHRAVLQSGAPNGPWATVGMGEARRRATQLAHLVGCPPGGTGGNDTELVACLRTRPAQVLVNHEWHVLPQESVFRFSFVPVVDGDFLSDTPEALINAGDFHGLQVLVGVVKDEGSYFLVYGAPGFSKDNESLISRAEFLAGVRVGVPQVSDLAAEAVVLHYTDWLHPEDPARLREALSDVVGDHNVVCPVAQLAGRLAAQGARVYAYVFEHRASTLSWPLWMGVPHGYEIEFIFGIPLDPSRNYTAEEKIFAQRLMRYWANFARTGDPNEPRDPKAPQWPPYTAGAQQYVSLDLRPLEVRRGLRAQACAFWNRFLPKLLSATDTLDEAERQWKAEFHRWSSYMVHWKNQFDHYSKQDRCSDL

Row | SMILES | IC50 [nM]
59 | O=C(Nc1cc(-c2cn(CCNc3c4c(nc5ccccc35)CCCC4)nn2)ccn1)Nc1cccc2c1[C@@H]1CCCCN1C2=O | 13.7
60 | O=C(Nc1cc(COCc2cn(CCNc3c4c(nc5ccccc35)CCCC4)nn2)ccn1)Nc1cccc2c1C1CCCCN1C2=O (racemic) | 20.8
61 | O=C(Nc1ccc(-c2cn(CCNc3c4c(nc5ccccc35)CCCC4)nn2)cn1)Nc1cccc2c1C1CCCCN1C2=O (racemic) | 0.8
62 | O=C(Nc1cc(CCc2cn(CCNc3c4c(nc5ccccc35)CCCC4)nn2)ccn1)Nc1cccc2c1C1CCCCN1C2=O (racemic) | 23.6
63 | CN(Cc1ccnc(NC(=O)Nc2cccc3c2C2CCCCN2C3=O)c1)Cc1cn(CCNc2c3c(nc4ccccc24)CCCC3)nn1 (racemic) | 58.6

System: MDR1
Test: in vitro
Settings: dog, MDCK-MDR1
Remark: another data set of the same source
Description: Apparent permeability across apical to basolateral side in MDCK2-MDR1 cells by HPLC analysis

Row | SMILES | Papp A→B [×10⁻⁶ cm/s]
64 | O=C(Nc1cc(COCc2cn(CCNc3c4c(nc5ccccc35)CCCC4)nn2)ccn1)Nc1cccc2c1C1CCCCN1C2=O (racemic) | 13.5
65 | CN(Cc1ccnc(NC(=O)Nc2cccc3c2C2CCCCN2C3=O)c1)Cc1cn(CCNc2c3c(nc4ccccc24)CCCC3)nn1 (racemic) | 10.1
